Experimental data as given in ChEMBL document CHEMBL1144193, “Design, synthesis, and evaluation of novel aryl-tetrahydropyridine PPARalpha/gamma dual agonists” (Bioorg Med Chem Lett, 2008).
In brackets after ≈: the same amount, converted by molar mass.

What was measured:
[1] = biological target: T1, Peroxisome proliferator-activated receptor alpha (Homo sapiens, UniProt Q07869); test: Agonist activity at human PPARalpha expressed in african green monkey CV-1 by co-transfected with GAL4 by dual-glo luciferase reporter gene assay; type: functional
T1 sequence (Q07869 whole entry): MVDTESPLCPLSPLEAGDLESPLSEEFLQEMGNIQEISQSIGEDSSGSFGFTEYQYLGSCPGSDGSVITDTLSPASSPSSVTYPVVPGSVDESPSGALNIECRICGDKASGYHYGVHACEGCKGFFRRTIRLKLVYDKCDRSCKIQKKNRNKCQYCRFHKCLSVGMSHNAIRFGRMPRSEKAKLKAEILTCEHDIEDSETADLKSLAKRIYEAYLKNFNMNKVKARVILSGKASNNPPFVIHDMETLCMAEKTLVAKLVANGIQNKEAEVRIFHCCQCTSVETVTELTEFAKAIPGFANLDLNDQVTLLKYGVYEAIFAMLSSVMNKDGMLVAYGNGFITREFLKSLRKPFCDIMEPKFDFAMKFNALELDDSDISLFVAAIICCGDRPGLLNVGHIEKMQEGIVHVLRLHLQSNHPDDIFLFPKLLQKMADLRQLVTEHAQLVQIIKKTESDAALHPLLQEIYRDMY

[2] = biological target: T2, Peroxisome proliferator-activated receptor gamma (Homo sapiens, UniProt P37231)
T2 sequence (P37231 whole entry): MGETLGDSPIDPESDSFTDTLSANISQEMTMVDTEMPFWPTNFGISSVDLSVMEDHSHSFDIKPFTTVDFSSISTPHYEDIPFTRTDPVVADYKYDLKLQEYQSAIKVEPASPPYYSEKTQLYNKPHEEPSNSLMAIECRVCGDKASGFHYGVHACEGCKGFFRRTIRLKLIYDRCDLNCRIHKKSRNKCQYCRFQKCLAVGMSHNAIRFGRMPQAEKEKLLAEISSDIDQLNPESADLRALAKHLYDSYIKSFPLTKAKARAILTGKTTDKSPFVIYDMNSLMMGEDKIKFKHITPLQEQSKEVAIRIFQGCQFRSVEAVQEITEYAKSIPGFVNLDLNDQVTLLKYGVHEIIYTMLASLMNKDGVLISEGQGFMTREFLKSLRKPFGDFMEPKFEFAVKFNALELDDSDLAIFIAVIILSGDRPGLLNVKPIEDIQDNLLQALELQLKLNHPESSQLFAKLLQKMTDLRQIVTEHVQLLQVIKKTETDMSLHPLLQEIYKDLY
Description: Agonist activity at human PPARgamma expressed in african green monkey CV-1 co-transfected with GAL4 by dual-glo luciferase reporter gene assay

[3] = Half life in Sprague-Dawley rat at 3 mg/kg, iv; type: ADME, organism-based; design: dose 3 mg/kg, route intravenous; conditions: in vivo
[4] = AUC (0 to 24 hrs) in Sprague-Dawley rat at 3 mg/kg, iv; type: ADME, organism-based; design: time < 24 hr, dose 3 mg/kg, route intravenous; conditions: plasma
[5] = Clearance in Sprague-Dawley rat at 3 mg/kg, iv; type: ADME, organism-based; design: dose 3 mg/kg, route intravenous; conditions: in vivo
[6] = Volume of distribution at steady state in Sprague-Dawley rat at 3 mg/kg, iv; conditions: in vivo
[7] = Tmax in Sprague-Dawley rat at 3 mg/kg, po; type: ADME, organism-based; design: dose 3 mg/kg, route oral; conditions: in vivo
[8] = Cmax in Sprague-Dawley rat at 3 mg/kg, po; type: ADME, organism-based; design: dose 3 mg/kg, route oral; conditions: in vivo
[9] = AUC (0 to 24 hrs) in Sprague-Dawley rat at 3 mg/kg, po; type: ADME, organism-based; design: time < 24 hr, dose 3 mg/kg, route oral; conditions: plasma
[10] = Solubility at pH 6.8; type: physicochemical; conditions: buffer
[11] = Oral bioavailability in Sprague-Dawley rat at 3 mg/kg; type: ADME, organism-based; conditions: in vivo
Mus musculus [12] = test: Antihyperglycemic activity in db/db mouse assessed as reduction in plasma glucose level at 0.03 mg/kg, po once daily after 28 days relative to non-fasting control; type: functional; design: scale not given: the % may be the effect or the level left
Mus musculus [13] = test: Antihyperglycemic activity in db/db mouse assessed as reduction in plasma glucose level at 0.1 mg/kg, po once daily after 28 days relative to non-fasting control; type: functional; design: scale not given: the % may be the effect or the level left
Mus musculus [14] = test: Antihyperglycemic activity in db/db mouse assessed as reduction in plasma glucose level at 0.3 mg/kg, po once daily after 28 days relative to non-fasting control; type: functional; design: scale not given: the % may be the effect or the level left
Mus musculus [15] = test: Antihyperglycemic activity in db/db mouse assessed as reduction in plasma glucose level at 1 mg/kg, po once daily after 28 days relative to non-fasting control; type: functional; design: scale not given: the % may be the effect or the level left
Mus musculus [16] = test: Antihyperglycemic activity in db/db mouse assessed as increase in body weight at 0.03 mg/kg, po once daily after 28 days; type: functional
Mus musculus [17] = test: Antihyperglycemic activity in db/db mouse assessed as increase in body weight at 0.1 mg/kg, po once daily after 28 days; type: functional
Mus musculus [18] = test: Antihyperglycemic activity in db/db mouse assessed as increase in body weight at 0.3 mg/kg, po once daily after 28 days; type: functional
Mus musculus [19] = test: Antihyperglycemic activity in db/db mouse assessed as increase in body weight at 1 mg/kg, po once daily after 28 days; type: functional
Mus musculus [20] = test: Antihyperglycemic activity in po dosed db/db mouse assessed as reduction in glucose level after 28 days; type: functional; conditions: 672 h
Mus musculus [21] = test: Antihyperglycemic activity in db/db mouse assessed as reduction in plasma glucose level at 3 mg/kg, po once daily after 28 days relative to non-fasting control; design: scale not given: the % may be the effect or the level left
Mus musculus [22] = test: Antihyperglycemic activity in db/db mouse assessed as increase in body weight at 3 mg/kg, po once daily after 28 days

Row | Structure (SMILES) | EC50 [1] [nM] | EC50 [2] [nM] | also measured
1 | CCOC(Cc1ccc(OCCN2CC=C(c3ccc(Cl)cc3)CC2)cc1)C(=O)O (stereo not drawn) | 7070 | 2060 | 
2 | CCOC(Cc1ccc(OCCN2CC=C(c3cccc(Cl)c3)CC2)cc1)C(=O)O (stereo not drawn) | 3240 | 1670 | 
3 | CCOC(Cc1ccc(OCCN2CC=C(c3cccc(C(F)(F)F)c3)CC2)cc1)C(=O)O (stereo not drawn) | 3120 | 2230 | 
4 | CCOC(Cc1ccc(OCCN2CC=C(c3ccccc3)CC2)cc1)C(=O)O (stereo not drawn) | 5980 | 2150 | 
5 | CCCc1ccc(C2=CCN(CCOc3ccc(CC(OCC)C(=O)O)cc3)CC2)cc1 (stereo not drawn) | 2080 | 174 | 
6 | CCOC(Cc1ccc(OCCN2CC=C(c3ccc(Cl)cc3Cl)CC2)cc1)C(=O)O (stereo not drawn) | 1120 | 706 | 
7 | CCO[C@@H](Cc1ccc(OCCN2CC=C(c3ccc(Cl)c(Cl)c3)CC2)cc1)C(=O)O | 615 | 862 | 
8 | CCOC(Cc1ccc(OCCN2CC=C(c3ccc(F)cc3)CC2)cc1)C(=O)O (stereo not drawn) | 2230 | 3720 | 
9 | CCOC(Cc1ccc(OCCN2CC=C(c3ccc(OC)cc3)CC2)cc1)C(=O)O (stereo not drawn) | 11300 | 396 | 
10 | CCOC(Cc1ccc(OCCN2CC=C(c3cc(Cl)cc(Cl)c3)CC2)cc1)C(=O)O (stereo not drawn) | 2990 | 1420 | 
11 | CCOC(Cc1ccc(OCCN2CC=C(c3cccc(OC)c3)CC2)cc1)C(=O)O (stereo not drawn) | 17300 | 2380 | 
12 | CCOC(Cc1ccc(OCCCN2CC=C(c3ccc(C(F)(F)F)cc3)CC2)cc1)C(=O)O (stereo not drawn) | 9790 | 504 | 
13 | CC(C)(Oc1ccc(OCCN2CC=C(c3ccc(Cl)cc3)CC2)cc1)C(=O)O | 868 | 22800 | 
14 | CC(C)(Oc1cccc(OCCN2CC=C(c3ccc(Cl)cc3)CC2)c1)C(=O)O | 331 | 18800 | 
15 | CCOC(Cc1ccc(OCCN2CC=C(c3ccc(CC)cc3)CC2)cc1)C(=O)O (stereo not drawn) | 7580 | 689 | 
16 | CCOC(Cc1ccc(OCCN2CC=C(c3cc(Cl)ccc3Cl)CC2)cc1)C(=O)O (stereo not drawn) | 1120 | 1440 | 
17 | CCOC(Cc1ccc(OCCN2CC=C(c3ccc(Cl)c(Cl)c3)CC2)cc1)C(=O)O (stereo not drawn) | 1150 | 670 | 

Row | Structure (SMILES) | EC50 [1] [nM] | EC50 [2] [nM] | also measured
18 | CCOC(Cc1ccc(OCCN2CC=C(c3cccs3)CC2)cc1)C(=O)O (stereo not drawn) | 8580 | 3300 | 
19 | CCC(Cc1ccc(OCCN2CC=C(c3ccc(Cl)cc3)CC2)cc1)C(=O)O (stereo not drawn) | 3860 | 5290 | 
20 | CC(Cc1ccc(OCCN2CC=C(c3ccc(Cl)cc3)CC2)cc1)(Oc1ccccc1)C(=O)O (stereo not drawn) | 25500 | 4880 | 
21 | CCOC(Cc1ccc(OCCN2CC=C(c3ccccc3OC)CC2)cc1)C(=O)O (stereo not drawn) | 18100 | 3930 | 
22 | CCOC(Cc1ccc(OCCN2CC=C(c3cnccn3)CC2)cc1)C(=O)O (stereo not drawn) | 3670 | 12600 | 
23 | CCOC(Cc1ccc(OCCCN2CC=C(c3ccc(Cl)cc3)CC2)cc1)C(=O)O (stereo not drawn) | 9800 | 2320 | 
24 | CCOC(Cc1ccc(OCCN2CC=C(c3ccccn3)CC2)cc1)C(=O)O (stereo not drawn) | 10200 | 2300 | 
25 | CCO[C@@H](Cc1ccc(OCCN2CC=C(c3ccc(Cl)cc3)CC2)cc1)C(=O)O | 1730 | 639 | half-life [3]: 1380 min; AUC(0-t) at 24 h [4]: 272 µM·h; clearance [5]: 0.23 mL/min/kg; Vd [6]: 0.44 L/kg; Tmax [7]: 30 min; Cmax [8]: 15.9 µM; AUC(0-t) at 24 h [9]: 270 µM·h; solubility [10]: 3260 µg/mL (≈ 7590 µM); bioavailability [11]: > 100%; Activity (Mus musculus [12]): 14%; Activity (Mus musculus [13]): 37%; Activity (Mus musculus [14]): 63%; Activity (Mus musculus [15]): 77%; Activity (Mus musculus [16]): 11.2 g; Activity (Mus musculus [17]): 12.4 g; Activity (Mus musculus [18]): 12.6 g; Activity (Mus musculus [19]): 13.7 g; ED30 (Mus musculus [20]): 0.067 mg/kg
26 | CCOC(Cc1ccc(OCCN2CC=C(c3ccccc3C(F)(F)F)CC2)cc1)C(=O)O (stereo not drawn) | 542 | 7560 | 
27 | CCOC(Cc1ccc(OCCN2CC=C(c3ccccc3Cl)CC2)cc1)C(=O)O (stereo not drawn) | 7720 | 5830 | 
28 | CCOC(Cc1ccc(OCCN2CC=C(c3ccc(C(F)(F)F)cc3)CC2)cc1)C(=O)O (stereo not drawn) | 3400 | 1890 | 
29 | CCOC(Cc1ccc(OCCN2CC=C(c3cccc(Cl)c3Cl)CC2)cc1)C(=O)O (stereo not drawn) | 64 | 661 | 
30 | CCOC(Cc1ccc(OCCN2CC=C(c3ncccn3)CC2)cc1)C(=O)O (stereo not drawn) | 7670 | 4600 | 
31 | CCOC(Cc1ccc(OCCCN2CC=C(c3ccc(Cl)c(Cl)c3)CC2)cc1)C(=O)O (stereo not drawn) | 1700 | 728 | 
32 | COc1ccc(OC(=O)N(CC(=O)O)Cc2ccc(OCCc3nc(-c4ccccc4)oc3C)cc2)cc1 [MURAGLITAZAR] | 4110 |  | half-life [3]: 840 min; AUC(0-t) at 24 h [4]: 101 µM·h; clearance [5]: 0.73 mL/min/kg; Vd [6]: 0.57 L/kg; Tmax [7]: 34.8 min; Cmax [8]: 25.8 µM; AUC(0-t) at 24 h [9]: 98.8 µM·h; solubility [10]: 41 µg/mL (≈ 79.4 µM); bioavailability [11]: 96.2%; Activity (Mus musculus [13]): 4%; Activity (Mus musculus [14]): 11%; Activity (Mus musculus [15]): 54%; Activity (Mus musculus [21]): 78%; Activity (Mus musculus [17]): 10.5 g; Activity (Mus musculus [18]): 12.7 g; Activity (Mus musculus [19]): 14.5 g; Activity (Mus musculus [22]): 16.1 g; ED30 (Mus musculus [20]): 0.411 mg/kg
33 | CN(CCOc1ccc(CC2SC(=O)NC2=O)cc1)c1ccccn1 (stereo not drawn) [ROSIGLITAZONE] |  |  | half-life [3]: 63 min; AUC(0-t) at 24 h [4]: 53.7 µM·h; clearance [5]: 2.99 mL/min/kg; Tmax [7]: 15 min; Cmax [8]: 44.3 µM; AUC(0-t) at 24 h [9]: 94.2 µM·h; solubility [10]: 14 µg/mL (≈ 39.2 µM); bioavailability [11]: > 100%; Activity (Mus musculus [13]): 17%; Activity (Mus musculus [14]): 37%; Activity (Mus musculus [15]): 56%; Activity (Mus musculus [21]): 68%; Activity (Mus musculus [17]): 10.5 g; Activity (Mus musculus [18]): 11.1 g; Activity (Mus musculus [19]): 12.5 g; Activity (Mus musculus [22]): 13.9 g; ED30 (Mus musculus [20]): 0.21 mg/kg
34 | CCO[C@@H](Cc1ccc(OCCc2ccc(OS(C)(=O)=O)cc2)cc1)C(=O)O [TESAGLITAZAR] | 3120 | 704 | 
